Measurements: patent US12404252B2, “Salt of 2-amino-2-(2-(1-decyl-1H-1,2,3-triazol-4-yl)ethyl)propane-1,3-diol, and pharmaceutical composition containing same” (NEXTGEN BIOSCIENCE CO., LTD, priority 2021, dated 2025)
Values after ≈ are worked out from the molar mass of the structure shown. Values joined by “and” are separate entries in the source; they are usually repeats but may differ in a detail not shown here. Equal values may be shown once. “Also recorded” adds a separate entry of the source.

Assays:
[1] = test system: T cells, CD4 T cells, and CD8 T cells; assay: Inhibitory effect against mouse immune cells (FACS after oral administration); type: in vivo; settings: mice, oral 3 mg/kg
Experimental: In order to examine whether Compound 1, which acts on the S1P receptor, also is effective in reducing lymphocytes, the effect of Compound 1 on immune cells was evaluated. After oral administration of Compound 1 to mice at 3 mg/kg/day, changes in lymphocytes in peripheral blood (PB) and bone marrow (BM) were classified into T cells, CD4 T cells, and CD8 T cells. FACS analysis was performed 0, 4, 8, 12, 24, and 36 hours after administration of the test substance. Cell number was measured and expressed as a percentage relative to that at time 0 (% of control).

[2] = Standard stock solution stability, 40° C./75±5% RH; type: physicochemical; settings: 40° C./75% RH
Experimental: The stability of the crystalline compound was examined at 40° C./75±5% RH. Physical stability was examined through comparative XRPD analysis before and after the test, and chemical stability was examined by HPLC method. The experimental conditions used in the stability test for Compound 1a and the test results are as follows.
40° C./75±5% RH: Conditions in which the vial was open and upright.
(§1) A required amount (˜1 mg) of solid material was dissolved in 1 mL of a diluent (1:1 methanol/water), and the prepared solution was analyzed by HPLC.

[3] = Solubility in aqueous media (HPLC); type: physicochemical; settings: for solubility at 24 h: thermodynamic from solid
Experimental: The solubility of Compound 1a prepared in Example 1 was evaluated in several different media, including pH 1.2 hydrochloric acid buffer, pH 3.0 citrate buffer, pH 4.7 acetate buffer, pH 6.8 phosphate buffer, simulated gastric fluid, fasted-state simulated intestinal fluid, fed-state simulated intestinal fluid, and water. About 2.17 mg of sample (based on the free base of Compound 1) for each medium was taken into a 2-mL transparent glass vial and […] of medium was added (constituents of the salt were considered Compound 1: counterion=1:0.5; target concentration: 2 mg/mL). The mixture was stirred using a magnetic stirrer at 250 RPM for 24 hours at 25° C. Next, the pH and appearance of the mixture were recorded and the mixture was filtered through a MultiScreen® HTS-HV 96-well plate (manufactured by Merck; 0.45-μm hydrophilic, low-protein-binding Durapore® membrane). Solubility was determined using HPLC, and a calibration curve was created by injecting a known concentration of Compound 1a. The filtered sample was injected (diluted appropriately as necessary) and the concentration of Compound 1a (mg/mL) in the filtrate was calculated from the calibration curve (taking salt coefficient into account). The analysis results are as follows.

[4] = test system: T cells, CD4 T cells, and CD8 T cells; assay: Inhibitory effect against rat immune cells (FACS after oral administration); type: in vivo; settings: SD rats
Experimental: In order to evaluate the effect of Compound 1a on rat immune cells, Compound 1a was administered orally to SD rats at 10 mg/kg/day, and then lymphocytes in peripheral blood (PB) and bone marrow (BM) were classified into T cells, CD4 T cells, and CD8 T cells. FACS analysis was performed 0, 4, 8, 12, 24, 36, and 48 hours after administration of the test substance. Cell number was measured and expressed as a percentage relative to that at time 0 (% of control). The numbers of T cells, CD4 T cells, and CD8 T cells were measured and expressed as percentages relative to those at time 0 (% of control).

[5] = pH stability and salinity stability, 40±2° C.; type: physicochemical
Experimental: pH and salinity stability tests for the hemifumirate salt of Compound 1 were performed at an initial target concentration of 2 mg/mL. The pH and salinity stability conditions used to evaluate the hemifumirate salt of Compound 1 and the evaluation results are as follows.
• 40±2° C.: Conditions in which the vial was capped and upright • Storage container for stability: 2-mL screw neck clear glass vial (manufactured by La-Pha-Pack) • Target concentration: ˜ 2 mg/mL (adding the sample to 1 mL of medium, followed by vortexing for 30 seconds) • 500 μL of the test mixture was dissolved in 500 μL of a diluent (1:1 methanol/water), and the prepared solution was analyzed by HPLC without filtration.

[6] = Hygroscopicity test by DVS; type: physicochemical
From the text: Dynamic vapor sorption (DVS) is a method that has been used for a long time to investigate the interactions between active pharmaceutical ingredients (APIs), and pharmaceutical preparations and water. Here, to analyze the water absorption rate of a sample at a specific temperature, measurements are made by exposing the sample to the desired relative humidity using a DVS water sorption analyzer (hygroscopicity analyzer) until the change in weight of the sample stabilizes.

[7] = target: hERG potassium ion channel (Homo sapiens, UniProt Q12809)
Sequence of hERG potassium ion channel (Q12809 whole entry): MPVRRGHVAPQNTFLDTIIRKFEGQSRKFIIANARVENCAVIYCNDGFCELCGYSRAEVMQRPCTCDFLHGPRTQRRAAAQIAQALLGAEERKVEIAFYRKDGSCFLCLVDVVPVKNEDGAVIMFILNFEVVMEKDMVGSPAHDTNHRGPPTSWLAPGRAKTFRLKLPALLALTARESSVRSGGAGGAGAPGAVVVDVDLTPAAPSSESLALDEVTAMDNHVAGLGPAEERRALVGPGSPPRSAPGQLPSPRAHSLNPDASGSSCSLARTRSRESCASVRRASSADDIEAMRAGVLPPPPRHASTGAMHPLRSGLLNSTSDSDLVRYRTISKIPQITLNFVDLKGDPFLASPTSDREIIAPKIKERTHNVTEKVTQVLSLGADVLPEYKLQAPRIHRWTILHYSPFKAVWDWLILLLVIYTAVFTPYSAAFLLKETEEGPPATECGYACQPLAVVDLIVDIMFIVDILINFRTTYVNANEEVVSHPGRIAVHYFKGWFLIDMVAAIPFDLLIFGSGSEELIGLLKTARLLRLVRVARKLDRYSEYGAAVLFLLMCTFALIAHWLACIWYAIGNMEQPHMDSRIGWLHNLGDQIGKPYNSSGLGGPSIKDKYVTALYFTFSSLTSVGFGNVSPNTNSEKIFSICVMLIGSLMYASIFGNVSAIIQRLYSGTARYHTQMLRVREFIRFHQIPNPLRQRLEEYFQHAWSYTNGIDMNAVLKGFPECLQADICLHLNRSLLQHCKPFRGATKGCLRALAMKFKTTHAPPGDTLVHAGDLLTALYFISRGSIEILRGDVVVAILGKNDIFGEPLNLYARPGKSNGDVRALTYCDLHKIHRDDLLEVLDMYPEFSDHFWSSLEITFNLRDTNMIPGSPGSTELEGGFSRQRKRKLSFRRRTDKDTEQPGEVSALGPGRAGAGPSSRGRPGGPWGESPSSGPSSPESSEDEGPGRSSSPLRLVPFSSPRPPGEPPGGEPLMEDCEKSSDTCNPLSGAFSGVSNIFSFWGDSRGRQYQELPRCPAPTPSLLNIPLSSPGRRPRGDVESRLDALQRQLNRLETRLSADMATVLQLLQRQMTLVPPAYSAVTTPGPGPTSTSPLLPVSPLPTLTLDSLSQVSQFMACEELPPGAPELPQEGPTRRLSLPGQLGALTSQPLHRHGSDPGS

[8] = Standard stock solution stability, 60° C./75±5% RH; type: physicochemical; settings: 60° C./75% RH, Initial
Experimental: The stability of the crystalline compound was under 60° C./75±5% RH conditions, and the purity thereof was examined by HPLC method. The experimental conditions used in the stability test for Compound 1a and the test results are as follows.
60° C./75±5% RH: Conditions in which the vial was open and upright.
as §1

With `CCCCCCCCCCn1cc(CCC(N)(CO)CO)nn1` [Compound 1a, 2-amino-2-(2-(1-decyl-1H-1,2,3-triazol-4-yl)ethyl) propane-1,3-diol] the “CD4 T cells in peripheral blood, relative to time 0 (% of control)” value ([1]; 4 hours) was 16.4% and 17.6%, the “CD8 T cells in peripheral blood, relative to time 0 (% of control)” value ([1]; 4 hours) was 5.9% and 9.3% and the “T cells in peripheral blood, relative to time 0 (% of control)” value ([1]; 4 hours) was 40.6% and 41.6%. The “T-cell distribution in bone marrow (BM), % of control” value ([1]; 4 hours) was 135% and 120%, the “T-cell distribution in bone marrow (BM), % of control” value ([1]; 24 hours) was 131% and 118% and the Purity % ([2]; 1-week) was 99.18%. The “XRPD (physical stability)” value ([2]; 1-week) was “Almost similar (some changes”, the “XRPD (physical stability)” value ([2]; 2-week) was “crystalline form was maintained; also recorded: Almost similar (some changes” and the Purity % ([2]; Initial) was 99.29%. The “XRPD (physical stability)” value ([2]; Initial) was “Crystalline”, the Visual observation ([3]; 0.5% Methylcellulose, target 2 mg/mL) was “Clear solution” and the solubility at 24 h ([3]; 25 °C, all of the aqueous media except phosphate buffer (pH 6.8)) was greater than 2000 µg/mL. For the same molecule, the Visual observation ([3]; FaSSIF (pH 6.5), target 2 mg/mL) was “Clear solution”, the Visual observation ([3]; FeSSIF (pH 5.8), target 2 mg/mL) was “Clear solution” and the Visual observation ([3]; SGF (pH 2.0), target 2 mg/mL) was “Clear solution”. The Visual observation ([3]; Water, target 2 mg/mL) was “Clear solution”, the solubility at 24 h ([3]; aqueous buffer, pH 3.0 Citrate buffer, 25° C., 24 hours, final pH 3.42) was greater than 2000 µg/mL and the solubility at 24 h ([3]; aqueous buffer, pH 4.7 Acetate buffer, 25° C., 24 hours, final pH 5.11) was greater than 2000 µg/mL. The solubility at 24 h ([3]; aqueous buffer, pH 6.8 Phosphate buffer, 25° C., 24 hours, final pH 6.94) was 306 µg/mL (≈ 0.937 mM), the solubility at 24 h ([3]; aqueous with cosolvent or surfactant or cyclodextrin, 0.5% Methylcellulose, 25° C., 24 hours, final pH 6.04) was greater than 2000 µg/mL and the Visual observation ([3]; pH 1.2 HCl buffer, target 2 mg/mL) was “Clear solution”. For the same molecule, the Visual observation ([3]; pH 3.0 Citrate buffer, target 2 mg/mL) was “Clear solution”, the Visual observation ([3]; pH 4.7 Acetate buffer, target 2 mg/mL) was “Clear solution” and the Visual observation ([3]; pH 6.8 Phosphate buffer, target 2 mg/mL) was “White suspension”. It also gave a solubility at 24 h ([3]; simulated gastric fluid, SGF (pH 2.0), 25° C., 24 hours, final pH 3.02) greater than 2000 µg/mL, a solubility at 24 h ([3]; simulated gastric fluid, pH 1.2 HCl buffer, 25° C., 24 hours, target 2 mg/mL, final pH 1.75) greater than 2000 µg/mL and a solubility at 24 h ([3]; FaSSIF (pH 6.5), 25° C., 24 hours, final pH 6.60) greater than 2000 µg/mL. For the same molecule, the solubility at 24 h ([3]; FeSSIF (pH 5.8), 25° C., 24 hours, final pH 5.97) was greater than 2000 µg/mL, the solubility at 24 h ([3]; Water, 25° C., 24 hours, final pH 6.04) was greater than 2000 µg/mL and the “change of cell number in bone marrow (BM)” value [4] was “no change or a tendency to increase”. For the same molecule, the “inhibitory effect on number of T cells in peripheral blood (PB)” value ([4]; dose-dependent, doses of the three values not given) was 70% and 80% and 87%, the Purity % ([5]; SGF/40° C., 1-week) was 99.25% and the Purity % ([5]; SGF/40° C., 2-week) was 99.29%. The Purity % ([5]; SGF/40° C., Initial) was 99.13%, the Purity % ([5]; Saline (0.9% NaCl)/40° C., 1-week) was 99.05% and the Purity % ([5]; Saline (0.9% NaCl)/40° C., Initial) was 99.20%. For the same molecule, the Purity % ([5]; pH 1.2 HCl buffer/40° C., 1-week) was 98.26%, the Purity % ([5]; pH 1.2 HCl buffer/40° C., 2-week) was 98.76% and the Purity % ([5]; pH 1.2 HCl buffer/40° C., Initial) was 98.92%. For the same molecule, the Purity % ([5]; pH 4.7 acetate buffer/40° C., 1-week) was 99.46%, the Purity % ([5]; pH 4.7 acetate buffer/40° C., 2-week) was 99.69% and the Purity % ([5]; pH 4.7 acetate buffer/40° C., Initial) was 99.23%. For the same molecule, the Purity % ([5]; pH 6.8 phosphate buffer/40° C., 1-week) was 98.36%, the Purity % ([5]; pH 6.8 phosphate buffer/40° C., Initial) was 99.20% and the “hygroscopicity (DVS evaluation, in words)” value ([6]; 90% RH, listed as Example 1) was “very low hygroscopicity”. The “DVS remark (adsorption at 90% RH)” value ([6]; water adsorption at 90% RH, DVS) was “less than 2%”, the Hill coefficient [7] was 1.527 and the “compensated suppression rate (%) of hERG channel currents” value ([7]; 30 μM) was 82.62±7.31%. It also gave a Purity % [8] of 99.11%.
